According to PMC2998338 (Neuropharmacology, 2010):
Where “and” joins values, the source holds several entries; their conditions need not be identical. Identical values can stand only once. Like-named read-outs stand apart in the source and are kept apart here.

What was measured:
[1] = tested on: male ICR mice; assay: Tail-flick test, compound alone; assay type: in vivo; details: for ED50 Tail-flick, percent effect at the individual dose: tested 15 min after injection; for change of tail-flick latencies by the compound itself: highest dose tested
[2] = tested on: male ICR mice; assay: Tail-flick test, antagonism of nicotine-induced antinociception; assay type: in vivo; details: s.c., 15 min before nicotine 2.5 mg/kg, tested 5 min after nicotine; (confidence limits)
[3] = tested on: male ICR mice; assay: Hot-plate test, compound alone; assay type: in vivo; details: tested 15 min after injection
[4] = tested on: male ICR mice; assay: Body temperature; assay type: in vivo
[5] = tested on: male ICR mice; assay: Body temperature, antagonism of nicotine-induced hypothermia; assay type: in vivo; details: for AD50 Body temperature, percent effect at the individual dose: 15 min before nicotine, tested 30 min after nicotine; for block of nicotine-induced hypothermia: mice
[6] = molecular target: NMDA receptors; details: read-out: IC50, NMDA receptors; ref MacDonald et al., 1990; Morris et al., 2005; cited from earlier work
[7] = molecular target: rat α7 nAChRs (Rattus norvegicus, UniProt Q05941); details: for α7 nH: Hill coefficient, mean
[8] = molecular target: human α4β2 neuronal nAChRs (Homo sapiens, UniProt P17787+P43681); details: for α4β2 nH: Hill coefficient, mean
[9] = molecular target: rat α3β4 nAChRs (Rattus norvegicus, UniProt P04757+P12392); details: for α3β4 nH: Hill coefficient, mean
[10] = molecular target: α7 nAChRs (Rattus norvegicus, UniProt Q05941); assay: [125I]IodoMLA binding assay, rat cerebral cortex; details: read-out: Ki, [125I]MLA binding sites, 70 pM [125I]iodoMLA
[11] = tested on: male ICR mice; assay: Hot-plate test, antagonism of nicotine-induced antinociception; assay type: in vivo; details: at 10 mg/kg s.c., 15 min before nicotine
[12] = tested on: neuronal nAChRs; assay: Whole-cell patch-clamp, time course of inhibition; assay type: cell-based; details: co-application with ACh following pre-exposure
[13] = holding potential −100 to +60 mV, n=3

Chain of rat α7 nAChRs (Q05941 23-502): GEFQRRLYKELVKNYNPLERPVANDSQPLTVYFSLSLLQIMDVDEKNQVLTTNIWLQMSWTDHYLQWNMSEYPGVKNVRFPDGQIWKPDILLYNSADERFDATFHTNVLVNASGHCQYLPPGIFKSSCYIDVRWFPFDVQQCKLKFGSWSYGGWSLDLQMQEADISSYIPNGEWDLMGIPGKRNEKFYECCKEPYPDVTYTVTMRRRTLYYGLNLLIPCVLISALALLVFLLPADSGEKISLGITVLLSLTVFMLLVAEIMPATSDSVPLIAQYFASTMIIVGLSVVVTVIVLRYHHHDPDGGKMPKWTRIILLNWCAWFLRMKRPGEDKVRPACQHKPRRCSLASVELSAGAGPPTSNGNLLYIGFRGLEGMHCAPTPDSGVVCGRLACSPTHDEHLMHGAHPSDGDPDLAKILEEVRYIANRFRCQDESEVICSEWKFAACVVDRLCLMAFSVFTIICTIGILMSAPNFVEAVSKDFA
Chain of human α4β2 neuronal nAChRs (P43681 29-627 limits assumed): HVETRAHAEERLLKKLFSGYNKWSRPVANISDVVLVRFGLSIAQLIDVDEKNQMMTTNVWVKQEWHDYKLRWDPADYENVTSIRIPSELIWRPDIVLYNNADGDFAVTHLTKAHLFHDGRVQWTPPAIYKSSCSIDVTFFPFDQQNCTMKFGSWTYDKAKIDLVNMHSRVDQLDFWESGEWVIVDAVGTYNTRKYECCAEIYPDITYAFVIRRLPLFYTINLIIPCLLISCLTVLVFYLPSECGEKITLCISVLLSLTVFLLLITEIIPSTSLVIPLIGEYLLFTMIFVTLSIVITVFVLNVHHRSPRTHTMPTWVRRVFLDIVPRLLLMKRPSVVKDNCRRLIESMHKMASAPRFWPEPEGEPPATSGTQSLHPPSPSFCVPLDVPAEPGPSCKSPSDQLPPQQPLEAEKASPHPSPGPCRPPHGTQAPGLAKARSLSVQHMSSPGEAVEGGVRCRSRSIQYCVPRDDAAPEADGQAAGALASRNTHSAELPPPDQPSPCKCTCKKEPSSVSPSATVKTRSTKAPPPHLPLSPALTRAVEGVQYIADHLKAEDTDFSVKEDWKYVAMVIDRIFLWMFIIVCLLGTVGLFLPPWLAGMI
Chain of human α4β2 neuronal nAChRs (P17787 26-502): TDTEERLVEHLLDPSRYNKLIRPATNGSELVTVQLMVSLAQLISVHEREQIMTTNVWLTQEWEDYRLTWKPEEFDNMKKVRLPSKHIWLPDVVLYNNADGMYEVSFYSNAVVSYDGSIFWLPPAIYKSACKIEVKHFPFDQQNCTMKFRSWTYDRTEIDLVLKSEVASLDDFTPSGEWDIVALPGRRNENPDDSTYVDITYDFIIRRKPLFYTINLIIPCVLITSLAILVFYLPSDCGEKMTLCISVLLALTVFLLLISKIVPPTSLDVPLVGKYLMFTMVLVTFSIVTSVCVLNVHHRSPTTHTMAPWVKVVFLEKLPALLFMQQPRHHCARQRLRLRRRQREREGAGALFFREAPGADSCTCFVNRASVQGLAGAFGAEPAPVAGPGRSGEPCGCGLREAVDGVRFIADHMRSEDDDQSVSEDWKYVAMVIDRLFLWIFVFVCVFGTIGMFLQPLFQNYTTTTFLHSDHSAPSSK
Chain of rat α3β4 nAChRs (P04757 26-499): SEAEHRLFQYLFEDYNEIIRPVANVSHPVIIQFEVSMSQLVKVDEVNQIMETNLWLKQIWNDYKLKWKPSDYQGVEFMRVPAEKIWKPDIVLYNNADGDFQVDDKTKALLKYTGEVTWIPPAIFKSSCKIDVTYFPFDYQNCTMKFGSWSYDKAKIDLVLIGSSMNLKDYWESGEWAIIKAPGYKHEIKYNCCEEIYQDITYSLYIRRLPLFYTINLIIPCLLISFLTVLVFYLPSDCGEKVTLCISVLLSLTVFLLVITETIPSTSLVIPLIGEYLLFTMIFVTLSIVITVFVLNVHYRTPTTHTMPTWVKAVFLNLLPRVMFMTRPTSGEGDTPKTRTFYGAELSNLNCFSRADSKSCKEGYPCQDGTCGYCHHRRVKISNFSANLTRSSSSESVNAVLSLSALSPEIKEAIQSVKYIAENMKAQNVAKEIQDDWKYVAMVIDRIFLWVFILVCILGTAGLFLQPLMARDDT
Chain of rat α3β4 nAChRs (P12392 21-495): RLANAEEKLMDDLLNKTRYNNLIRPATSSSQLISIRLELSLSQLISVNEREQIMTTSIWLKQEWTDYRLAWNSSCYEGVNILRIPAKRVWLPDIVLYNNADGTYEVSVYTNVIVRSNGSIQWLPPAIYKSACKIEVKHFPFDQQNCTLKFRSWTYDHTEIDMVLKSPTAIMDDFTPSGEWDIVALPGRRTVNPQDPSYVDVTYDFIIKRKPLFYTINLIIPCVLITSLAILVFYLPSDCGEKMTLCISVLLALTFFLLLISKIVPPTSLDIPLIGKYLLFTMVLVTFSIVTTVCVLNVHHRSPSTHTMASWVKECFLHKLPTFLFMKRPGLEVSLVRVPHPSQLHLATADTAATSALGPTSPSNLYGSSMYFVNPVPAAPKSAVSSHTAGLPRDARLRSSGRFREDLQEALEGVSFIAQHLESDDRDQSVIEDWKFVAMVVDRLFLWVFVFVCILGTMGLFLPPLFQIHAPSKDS
Chain of α7 nAChRs (Q05941 23-502): as the sequence (Q05941 23-502) above

c1ccc(C2(N3CCCCC3)CCCCC2)cc1 [PCP, phencyclidine, reference compound]
ED50 Tail-flick, percent effect at the individual dose ([1]; at 5 mg/kg s.c.): 6%@5
change of tail-flick latencies by the compound itself [1]: did not significantly change
AD50 Tail-flick [2]: 1.1 (0.87–1.30) mg/kg
ED50 Hot-Plate, percent effect at the individual dose ([3]; at 5 mg/kg s.c.): 5%@5
ED50 Hypothermia, percent effect at the individual dose ([4]; at 5 mg/kg s.c.): 5%@5
AD50 Body temperature, percent effect at the individual dose ([5]; at 5 mg/kg s.c.): 0%@5
block of nicotine-induced hypothermia [5]: failed to block
IC50 [6]: ~1 µM
α7 nH [7]: 0.97
fold more potent at α7 than at α4β2 nAChRs ([7]; ratio of patch-clamp IC50s): 23 fold
α4β2 nH [8]: 1.4
IC50 ([8]; α4β2 IC50): 29 µM
α3β4 nH [9]: 0.65
IC50 ([9]; α3β4 IC50): 6.4 µM and 6.35 µM

CN(C)c1ccc2c(c1)CC1CC(Cc3ccccc3)N(C)C21 (stereo not drawn) [HDMP, 1,2,3,3a,4,8b-hexahydro-2-benzyl-6-N,N-dimethylamino-1-methylindeno[1,2,-b]pyrrole]
Ki [10]: > 10 µM
ED50 Tail-flick, percent effect at the individual dose ([1]; at 10 mg/kg s.c.): 2%@10
change of tail-flick latencies by the compound itself [1]: did not significantly change
AD50 Tail-flick [2]: 0.008 (0.004–0.015) mg/kg
ED50 Hot-Plate, percent effect at the individual dose ([3]; at 10 mg/kg s.c.): 8%@10
AD50 Hot-Plate, percent effect (inhibition) at the individual dose [11]: 20%@10
ED50 Hypothermia, percent effect at the individual dose ([4]; at 10 mg/kg s.c.): 0%@10
AD50 Body temperature, percent effect at the individual dose ([5]; at 10 mg/kg s.c.): 0%@10
block of nicotine-induced hypothermia [5]: failed to block
time in which the inhibitory effect develops [12]: 40 to 60 s
inhibition of whole-cell currents, α7 ([7]; 0.1 μM, −80 mV, example cell): 55%
α7 nH [7]: 0.73
fold more potent than PCP in inhibition of α7 nAChRs ([7]; based on IC50 values 1.25 and 0.07 μM): 18 fold
voltage-dependence of inhibitory effect, α7 [7, 13]: voltage-independent
fold more potent at α7 than at α3β4 nAChRs ([7]; ratio of patch-clamp IC50s): 414 fold
fold more potent at α7 than at α4β2 nAChRs ([7]; ratio of patch-clamp IC50s): 357 fold
effect on whole-cell currents, α4β2 ([8]; 0.1 μM, −80 mV, example cell): no effect
α4β2 nH [8]: 1.15
voltage-dependence of inhibitory effect, α4β2 [8, 13]: voltage-independent
IC50 ([8]; read-out: α4β2 IC50): 25.1 µM
effect on whole-cell currents, α3β4 ([9]; 0.1 μM, −80 mV, example cell): no effect
α3β4 nH [9]: 1.06
fold less potent than PCP in inhibition of α3β4 nAChR function ([9]; based on IC50s 28.98 and 6.35 μM): 4.6 fold
voltage-dependence of inhibitory effect, α3β4 [9, 13]: voltage-independent
IC50 ([9]; read-out: α3β4 IC50): 29 µM
